Test results from the PolyMetriX glass transition set.

Structure (SMILES)	glass transition temperature
*/C=C/C(C*)OC (repeat unit)	-10.50 °C
*CC(C)(COC(=O)NCCCCCCNC(=O)O*)C(=O)O (repeat unit)	-26.00 °C
*CC(C)(C)COC(=O)O* (repeat unit)	25.00 °C
*c1ccc(-c2cc(-c3ccc(OCCCC#N)cc3)cc(-c3ccc(N4C(=O)c5ccc(Oc6ccc7c(c6)C(=O)N(*)C7=O)cc5C4=O)cc3)n2)cc1 (repeat unit)	315.00 °C
*[Si](*)(C)c1ccccc1 (repeat unit)	88.00 °C
*c1ccc(Oc2ccc(-c3ccc(Oc4ccc(N5C(=O)c6ccc(Oc7ccc8ccc(Oc9ccc%10c(c9)C(=O)N(*)C%10=O)cc8c7)cc6C5=O)cc4)cc3)cc2)cc1 (repeat unit)	231.00 °C
*CCCCCCNC(=O)CCCCCCCCCCCCCCC(=O)N* (repeat unit)	40.00 °C
*CC(CO*)(CS(=O)(=O)CCCC)CS(=O)(=O)CCCC (repeat unit)	66.00 °C
*/C=C/C1CC(*)C2C(=O)N(CCC)C(=O)C12 (repeat unit)	139.00 °C
*CC(*)(C)C(=O)NC(=O)OCCOc1c(Br)cc(S(=O)(=O)c2cc(Br)c(OCCO)c(Br)c2)cc1Br (repeat unit)	110.00 °C
*c1cc(Br)c(Oc2c(Br)cc(N3C(=O)c4ccc(S(=O)(=O)c5ccc6c(c5)C(=O)N(*)C6=O)cc4C3=O)cc2Br)c(Br)c1 (repeat unit)	328.00 °C
*CC(*)C(=O)c1ccc(CCC)cc1 (repeat unit)	44.00 °C
*CC(CO*)(CS(C)(=O)=O)CS(C)(=O)=O (repeat unit)	126.00 °C
*c1ccc(NC2CC(=O)N(c3ccc(-c4sc(-c5ccc(N6C(=O)CC(Nc7ccc(-c8nc(-c9ccc(-c%10nc(-c%11ccc([N+](=O)[O-])cc%11)c(-c%11ccc([N+](=O)[O-])cc%11)[nH]%10)cc9)[nH]c8*)cc7)C6=O)cc5)c(-c5ccccc5)c4-c4ccccc4)cc3)C2=O)cc1 (repeat unit)	152.00 °C
*CCN(*)CC (repeat unit)	-32.00 °C
*NC(C)CC(*)=O (repeat unit)	125.00 °C
*CC(C)(CC)CS* (repeat unit)	-50.00 °C
*Oc1c(C)cc(C(C)(C)c2cc(C)c(OC(=O)CCCCCCCCC(*)=O)c(C)c2)cc1C (repeat unit)	45.00 °C
*CC(*)c1ccc([Si](O[Si](C)(C)C)(O[Si](C)(C)C)O[Si](C)(C)C)cc1 (repeat unit)	114.00 °C

Structure (SMILES)	glass transition temperature
*CC1CCC(COC(=O)C2CCC(C(=O)O*)CC2)CC1 (repeat unit)	77.00 °C
*C(=O)Oc1ccc(C2(c3ccc(OC(=O)c4ccc5c(c4)C(=O)N(c4ccc(-c6ccc(N7C(=O)c8ccc(*)cc8C7=O)cc6C)c(C)c4)C5=O)cc3)CCCCCCCCCCC2)cc1 (repeat unit)	204.00 °C
*C[Si](*)(CCCCCC)CCCCCC (repeat unit)	-56.00 °C
*CC(*)c1ccccc1COC (repeat unit)	89.00 °C
*CCCCCCCCCOC(=O)c1ccc(C(=O)O*)cc1 (repeat unit)	35.00 °C
*c1ccc(-c2ccc(-c3nc4ccccc4c(-c4ccc(Oc5ccc(-c6c(-c7ccccc7)c(*)nc7ccccc67)cc5)cc4)c3-c3ccccc3)cc2)cc1 (repeat unit)	345.00 °C
*CC(*)c1ccc([Si](C)(C)O[Si](C)(C)C)cc1 (repeat unit)	35.50 °C
*CCOCCOC(=O)/C=C/C(=O)O* (repeat unit)	-8.20 °C
*CCCCCCCCCNC(=S)N* (repeat unit)	48.00 °C
*c1ccc2c(c1)C(=O)N(c1ccc(Oc3ccc(N4C(=O)c5ccc(-c6c(-c7ccccc7)c(-c7ccccc7)c(-c7ccc(Sc8ccc(-c9c(-c%10ccccc%10)c(-c%10ccccc%10)c(*)c(-c%10ccccc%10)c9-c9ccccc9)cc8)cc7)c(-c7ccccc7)c6-c6ccccc6)cc5C4=O)cc3)cc1)C2=O (repeat unit)	322.00 °C
*CCCCC[Si](*)(C)c1ccccc1 (repeat unit)	-10.40 °C
*O[Si](C)(C)C#C[Si](C)(C)C#C[Si](C)(C)C#C[Si](C)(C)C#C[Si](*)(C)C (repeat unit)	-23.00 °C
*CC(*)c1c(F)c(F)c(OCC(F)(F)C(F)(F)F)c(F)c1F (repeat unit)	61.00 °C
*c1ccc(Oc2ccc(C(C)(C)c3ccc(Oc4ccc(-c5ncc(*)o5)cc4C(F)(F)F)cc3)cc2)c(C(F)(F)F)c1 (repeat unit)	185.00 °C
*C(=O)c1ccc(Oc2ccc(S(=O)(=O)c3ccc(Oc4ccc(C(=O)c5ccc6c(c5)C(=O)N(c5ccc(Oc7ccc(N8C(=O)c9ccc(*)cc9C8=O)cc7)cc5)C6=O)cc4)cc3)cc2)cc1 (repeat unit)	241.00 °C
*CC(*)(F)C(=O)OCC (repeat unit)	94.00 °C
*OC(CCCCCC)CC(*)=O (repeat unit)	-47.00 °C
*C1C(=O)OC(=O)C1C1C2CC(COCCC)C(C2)C1* (repeat unit)	209.00 °C
*CCOC(=O)CCCCCCC(=O)OCCOC(=O)c1ccc(C(=O)O*)cc1 (repeat unit)	-1.00 °C

Now from value to compound:

glass transition temperature	Structure (SMILES)
53.00 °C	*CCCCCOc1ccc(C(=O)OC(=O)c2ccc(O*)cc2)cc1 (repeat unit)
132.2 °C	*O[Si](Oc1ccc(-c2ccc(*)cc2)cc1)(c1ccccc1)c1ccccc1 (repeat unit)
57.00 °C	*COCOc1ccc(C(=O)OC(=O)c2ccc(O*)cc2)cc1 (repeat unit)
40.00 °C	*CC(*)(C)C(=O)OCCCCCCOc1ccc(C(=O)Oc2ccc(/N=N/c3ccc(I)cc3)c3ccccc23)cc1 (repeat unit)
224.00 °C	*c1cccc(N2C(=O)c3ccc(Oc4cccc(Oc5ccc6c(c5)C(=O)N(*)C6=O)c4)cc3C2=O)c1 (repeat unit)
321.00 °C	*c1cccc(C(=O)c2cccc(-n3c(=O)c4cc5c(=O)n(*)c(=O)c5cc4c3=O)c2)c1 (repeat unit)
76.00 °C	*CCCCCCOC(=O)OCCCCCCN1C(=O)c2ccc(C(=O)c3ccc4c(c3)C(=O)N(*)C4=O)cc2C1=O (repeat unit)
116.00 °C	*CC(*)(C)C(=O)OCCN(CC)c1ccc(/N=N/c2ccc([N+](=O)[O-])c3ccccc23)cc1 (repeat unit)
272.00 °C	*c1ccc(NC(=O)c2ccc(C(=O)Nc3ccc(-c4nnc(*)o4)cc3)c(Oc3ccccc3)c2)cc1 (repeat unit)
110.00 °C	*Oc1ccc(Cc2ccc(OC(=O)c3cc(OCCCCC)cc(C(*)=O)c3)cc2)cc1 (repeat unit)
45.00 °C	*CC(*)(C)C(=O)OCCCCCCOc1ccc(C(=O)Oc2ccc(C)cc2)cc1 (repeat unit)
153.00 °C	*Oc1ccc(C(C)(C)c2ccc(Oc3ccc(C(=O)c4cccc(C(=O)c5ccc(*)cc5)c4)cc3)cc2)cc1 (repeat unit)
275.00 °C	*C(=O)NC1CCC(CC2CCC(NC(=O)c3ccc(N4C(=O)c5ccc(*)cc5C4=O)cc3)CC2)CC1 (repeat unit)
5.50 °C	*O[Si](*)(C)CCCCCCCCOc1ccc(C(=O)Oc2ccc(C#N)cc2C)cc1 (repeat unit)
51.00 °C	*CC(*)(C)C(=O)OCCCCCCCCCCOc1ccc(/N=N/c2ccc(C#N)cc2)cc1 (repeat unit)
220.00 °C	*/N=N/c1ccc(NC(=O)CCC(=O)Nc2ccc(*)cc2)cc1 (repeat unit)
46.00 °C	*CC(*)(C)C(=O)OCCCCCCOc1ccc(C(=O)Oc2ccc(/N=N/c3ccccc3)c3ccccc23)cc1 (repeat unit)
420.00 °C	*c1ccc(C2(c3ccc(-c4cc(-c5ccccc5)c5cc(-c6ccc7nc(*)cc(-c8ccccc8)c7c6)ccc5n4)cc3)c3ccccc3-c3ccccc32)cc1 (repeat unit)
78.00 °C	*C(=O)OC1CC(*)N(C(=O)OCc2ccccc2)C1 (repeat unit)
248.00 °C	*Nc1ccccc1-c1ccc(NC(=O)c2cccc(C(*)=O)c2)cc1 (repeat unit)
78.00 °C	*CC(*)C(=O)Oc1ccc(C(=O)c2ccc(Cl)cc2)cc1 (repeat unit)
229.00 °C	*C(=O)Nc1ccc(Oc2ccccc2-c2ccccc2Oc2ccc(NC(=O)c3ccc4c(c3)C(=O)N(c3ccc(Oc5cccc(Oc6ccc(N7C(=O)c8ccc(*)cc8C7=O)cc6)c5)cc3)C4=O)cc2)cc1 (repeat unit)
295.00 °C	*Oc1cc(C(C)(C)C)c(Oc2ccc(C(=O)Nc3c(C)cc(C(C)(C)c4cc(C)c(NC(=O)c5ccc(*)cc5)c(C)c4)cc3C)cc2)cc1C(C)(C)C (repeat unit)
150.00 °C	*c1cnc(C2C(c3ccccc3)C(*)C2c2ccccc2)cn1 (repeat unit)
109.00 °C	*CCOCCOCCN1C(=O)c2ccc(C(=O)Oc3ccc(-c4ccc(OC(=O)c5ccc6c(c5)C(=O)N(*)C6=O)cc4)cc3)cc2C1=O (repeat unit)
230.00 °C	*c1ccc(C(c2ccc(C#N)cc2)c2ccc(N(*)c3ccc(C)cc3)cc2)cc1 (repeat unit)
68.00 °C	*Oc1ccc(CC(NC(=O)CCc2ccc(OC(=O)COCC(*)=O)cc2)C(=O)OC(C)CC)cc1 (repeat unit)
392.00 °C	*c1ccc(C2(c3ccc(N4C(=O)c5ccc(S(=O)(=O)c6ccc7c(c6)C(=O)N(*)C7=O)cc5C4=O)cc3)c3ccccc3-c3ccccc32)cc1 (repeat unit)
62.00 °C	*c1ccc(C(=O)OCCCCCCOc2ccc(/C=C/C(=O)/C=C/c3ccc(OCCCCCCOC(=O)c4ccc(-c5nnc(*)o5)cc4)cc3)cc2)cc1 (repeat unit)
260.00 °C	*c1cccc(N2C(=O)c3ccc(Oc4cccc5c(Oc6ccc7c(c6)C(=O)N(*)C7=O)cccc45)cc3C2=O)c1 (repeat unit)
